From patent US20210338661A1, “NEW USES OF A PURE 5-HT 6 RECEPTOR ANTAGONIST” (SUVEN LIFE SCIENCES LIMITED, priority 2017, published 2021)

What was measured:
Aged rats = test: Morris water maze task in aged rats (in vivo model for senile dementia); set-up: species or system rat; settings: 10 mg/kg, p.o.
Description: Morris Water Maze Task (In Vivo Model for Senile Dementia): The water maze apparatus consisted of a circular pool (1.8 m diameter, 0.6 m high) constructed in black perspex (TSE, systems, Germany) filled with water (24° C.). The maze was positioned underneath a wide-angled video camera. A 16 cm diameter perspex platform, lying 1 cm below the water surface, was placed in the center of one of the four imaginary quadrants, which remained constant for all rats. The maze offered no intra-maze cues to guide the escape behavior, however, the training room offered several strong extra maze visual cues to aid escape learning. An automated tracking system (Videomot 2 (5.51), TSE systems, Germany) was employed to track animal and record the parameters. […] Aged rats (˜80 weeks old) were placed facing the wall of the maze and lowered gently, feet first into water. Rats were allowed to swim for 60 seconds to find the platform. If the platform was found during this time, the trial was stopped and rat was allowed to stay on platform for 10 seconds before being removed from the maze. If the platform was not found during the 60 seconds trial, rat was guided to the platform and allowed to stay on platform for 10 seconds before being removed from the maze. The rats were taken off the platform ensuring that the rat see the investigator's hand from the front before removal. They were dried gently with a towel. Each rat received 4 trials in a day. The maze has 8 starting points. On the first, third and fifth day the animals started from 1st, 3rd, 5th and 7th starting point and on the second and fourth day the animals started from 2nd, 4th, 6th and […]. […] Retention of the task was assessed on 10th day, during which each animal received a single 30 seconds probe trial. […] Latency to reach the platform (s), swim speed (cm/s) and path length (cm) were recorded during acquisition trials. Percentage time spent in target quadrant (quadrant in which platform was placed during acquisition training) and swim speed (cm/s) were recorded for the probe trial.

BCCL rats = test: Contextual fear conditioning in bilateral common carotid artery ligated rats (in vivo model for vascular dementia); set-up: species or system rat; settings: 3 and 10 mg/kg, p.o., 60 min post dose, FIG. 5
Source text: Contextual Fear Conditioning (In Vivo Model for Vascular Dementia): Male Wistar rats of age 2-3 months were used. Rats were induced vascular dementia by surgical procedure, which involves bilateral common carotid artery ligation (BCCL). Briefly, rats were anaesthetized using 2-5% isoflurane gaseous anesthesia. A dorsal incision was made near the neck region and two bilateral common carotid arteries were exposed. Both the arteries were separated from their sheaths and vagal nerves, and permanently ligated using 4-0 silk sutures. Sham animals were subjected to surgery except for ligation. After an induction period of 14 days, rats were examined in fear conditioning task. On day 1, rats were placed in the behavioral chamber and allowed to acclimatize for 1 min. Post acclimatization rats received a conditioned stimulus (CS) (tone for 10 sec) followed by an unavoidable foot shock (unconditioned stimulus (US): electric shock of 0.4 mA for 1 sec). Following a 40 sec interval between each administration, tone and shock were repeated to deliver a total of six CS-US pairings. […] After post dose interval of 60 min, animals were scored for the duration of freezing without shock stimulus. Shocking and scoring was controlled by Freeze frame software.

CD1 mice = test: Resident intruder task (in vivo model for aggression due to dementia); set-up: species or system mouse; settings: 1, 3 and 10 mg/kg, p.o., 60 minutes prior to the trial, FIG. 4
Description: Resident Intruder Task (In Vivo Model for Aggression Due to Dementia): Male CD1 mice of weight 20-35 g (Resident), 15-25 g (Intruder) and ovariectomized female mice (20-25 g) were used. Resident mice were habituated individually with ovariectomized female mice in each cage. β-estradiol at a dose of 0.2 mg/kg, s.c. was administered to female mice during habituation. Intruders were habituated socially for 1 week. On day 1 and day 2, intruder was exposed to resident mice in resident's home cage for a period of 10 minutes and duration of attack was recorded. During this exposure period, female mice were removed from the cage. On day 4, animals were randomized based on their duration of attack and respective treatments were administered. […] After post dose interval, resident mice were exposed to same intruder for 10 min and duration of attack was recorded.

[1] = system: ovariectomized female Wistar rats; test: Object recognition task in ovariectomized rats (in vivo model for dementia due to menopause); set-up: species or system rat; settings: SUVN-502 1, 3 and 10 mg/kg, p.o. one hour prior to evaluation, FIGS. 1 and 2
Description: Object Recognition Task (In Vivo Model for Dementia Due to Menopause) Bilateral ovariectomy surgery was carried out in 7-8 weeks old female rats. Briefly, animals were anesthetized using Avertin (2,2,2-tri bromo ethanol) at 150 mg/kg, i.p. and were lay down on the surgery table. A midline incision was given on the dorsal region below the rib cage and 1 cm lateral to the either side of midline, a small incision was given on fascia to locate the adipose fat supporting the ovaries. By slowly pulling out the fat tissue, the ovary is identified and excised following the uterine horn ligation with silk sutures. Fascia was also covered with sutures and the similar procedure was repeated on the other side. Superficial skin layers were sutured and gentamicin (15 mg/kg, s.c.) was given as antibiotic and meloxicam (1 mg/kg, i.m.) as analgesic with povidone iodine applied on superficial skin layers at last. Episodic memory which is a memory of autobiographical events contextual in relation to time, place etc. was assessed 4 weeks after the surgery using object recognition task. Object recognition task was carried out using black circular arenas (50 cm height×50 cm diameter) made of PVC laminates. […] Discriminative index was calculated as ratio of time spent exploring the novel object divided by sum of time spent exploring the novel object and familiar object in choice trial.

Male Wistar rats = test: Object recognition task in doxorubicin-treated rats (in vivo model for chemotherapy-induced cognitive impairment); set-up: species or system rat; settings: DOX 2.5 mg/kg, i.p. treated male Wistar rats; SUVN-502 1 and 10 mg/kg, p.o.; FIG. 6
Description: Male Wistar rats (230-280 g) were used as experimental animals. Four animals were housed in each cage. Rats were acclimatized for 7 days (Days 1-7) to the laboratory conditions. Chemotherapy-induced cognitive impairment was induced by injecting doxorubicin (DOX) at 2.5 mg/kg, i.p. once in every 5 days up to 8 cycles (days 8-49). […] On experimental day 50, following 60 min of formulation dosing, animals were habituated to the arenas for 45 min. On day 51, animals were treated with their respective formulations 60 min prior to the familiarization trial (T1) during which rats was presented with two similar objects i.e., silver Milton flasks (a1 and a2) for 3 min. After an interval of 30 min, rats were subjected to choice trial (T2), with one familiar (silver, a3) and one novel (red, b) object for a period of 3 min. During the T1 and T2 trials, exploration time of each object (defined as sniffing, licking, chewing or having moving vibrissae whilst directing the nose towards the object at a distance of less than 1 cm) were recorded separately by hand held stop watch. • Reference: Behavioural Brain Research, 1988, 31, 47-59.

Compound	path length versus vehicle treated group (Aged rats; aged rats (~80 weeks old), acquisition days 3, 4 and 5, p<0.05, p<0.01)	target latency versus vehicle treated group (Aged rats; aged rats, days 3, 4 and 5, statistically significant (p<0.05, p<0.01) only on day 3 and 5)	time in the target quadrant during the probe trial versus vehicle (Aged rats; aged rats, probe trial on 10th day, p<0.05)	memory (duration of freezing) (BCCL rats)	aggression levels (duration of attack) (CD1 mice)	effect on object memory deficits [1]	novel object recognition (exploration time, novel versus familiar object) (Male Wistar rats)
COc1ccc2c(c1)c(CN1CCN(C)CC1)cn2S(=O)(=O)c1ccccc1Br [SUVN-502, 1-[(2-Bromophenyl)sulfonyl]-5-methoxy-3-[(4-methyl-1-piperazinyl)methyl]-1H-indole dimesylate monohydrate]	significantly lesser	also lesser	more time in the target quadrant	improved the memory	decreased the aggression levels	reversed the object memory deficits	increased novel object recognition
COc1cc2c(cc1OC)C(=O)C(CC1CCN(Cc3ccccc3)CC1)C2 (centres unmarked) [donepezil, reference compound]						did not reverse the object memory deficits	
